Tests used:
ZAP-70 = ZAP-70 (Homo sapiens, UniProt P43403); assay: biochemical; settings: read-out: % inhib
pAKT = assay: pAKT/tAKT in normal brain tissue; format: in vivo, female CD-1 mice
Procedure: The effect of compound IIIat on pAKT in normal brain tissue, expressed as the ratio of phosphorylated AKT (pAKT) to total AKT (tAKT) was evaluated. […] In the evaluation, female CD-1 mice were administered a single PO dose of the indicated compound. Brains and plasma were collected at the indicated time post-dose, from 3 animals at each time point. Individual brains were split in half for PD analysis and compound concentration measurement. The samples were stored at −70° C. and analyzed for total concentration. For PD analysis, cell extraction buffer (Invitrogen, Camarillo, Calif.) containing 10 mM Tris pH 7.4, 100 mM NaCl, 1 mM EDTA, 1 mM EGTA, 1 mM NaF, 20 mM Na4P2O7, 2 mM Na3VO4, 1% Triton X-100, 10% glycerol, 0.1% SDS, and 0.5% deoxycholate was supplemented with phosphatase, protease inhibitors (Sigma, St. Louis, Mo.) and 1 mM PMSF and added to frozen brain biopsies. […] Protein concentration was determined using BCA protein assay (Pierce, Rockford, Ill.). […] Licor Odyssey Infrared detection system (Licor, Lincoln, Nebr.) was used to assess and quantify protein expression. PI3K pathway markers were evaluated by immunoblotting using antibodies against pAkt^ser473 and total Akt (Invitrogen, Camarillo, Calif. and Cell Signaling, Danvers, Mass.). Inhibition of pAkt (%) was calculated by comparing pAkt signal with that measured in untreated mice.

human BCRP = biological target: T1, human BCRP (Homo sapiens, UniProt Q9UNQ0); assay: Transport assay in BCRP-MDCKII cell monolayers; format: in vitro ADME; settings: 2-hour incubation
T1 construct: host or cells: BCRP-MDCKII (canine kidney)
T1 sequence (Q9UNQ0 whole entry): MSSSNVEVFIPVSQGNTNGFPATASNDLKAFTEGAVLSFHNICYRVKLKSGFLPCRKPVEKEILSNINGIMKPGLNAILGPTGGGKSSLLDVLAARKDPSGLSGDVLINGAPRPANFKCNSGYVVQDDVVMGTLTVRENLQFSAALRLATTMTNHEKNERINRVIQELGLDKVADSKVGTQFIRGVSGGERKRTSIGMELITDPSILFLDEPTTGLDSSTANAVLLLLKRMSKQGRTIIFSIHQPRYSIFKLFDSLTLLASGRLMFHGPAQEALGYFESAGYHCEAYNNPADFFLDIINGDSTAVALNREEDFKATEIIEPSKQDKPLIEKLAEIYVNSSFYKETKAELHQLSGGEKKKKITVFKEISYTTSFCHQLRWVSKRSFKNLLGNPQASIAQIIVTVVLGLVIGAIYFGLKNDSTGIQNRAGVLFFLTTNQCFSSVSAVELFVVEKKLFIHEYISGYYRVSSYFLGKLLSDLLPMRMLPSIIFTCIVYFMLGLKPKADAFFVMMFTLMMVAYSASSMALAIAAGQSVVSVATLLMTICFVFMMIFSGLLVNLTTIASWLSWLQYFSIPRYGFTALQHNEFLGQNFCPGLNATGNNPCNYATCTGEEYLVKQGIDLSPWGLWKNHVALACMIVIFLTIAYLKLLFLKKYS
Procedure: (§1) MDR1-MDCKI cells were licensed from the NCI (National Cancer Institute, Bethesda, Md.) and Bcrp1-MDCKII, BCRP-MDCKII and Mdr1a-LLC-PK1 cells were obtained from the Netherlands Cancer Institute (Amsterdam. The Netherlands). […] The compound was dissolved in transport buffer consisting of Hank's balanced salt solution (HBSS) with 10 mM HEPES (Invitrogen Corporation, Grand Island, N.Y.). Lucifer Yellow (Sigma-Aldrich, St. Louis, Mo.) was used as the paracellular and monolayer integrity marker. […] The efflux ratio (ER) was calculated (Papp, B-A/Papp, A-B).

CaMKII_beta = CaMKII_beta (Homo sapiens, UniProt Q13554); assay: biochemical; settings: read-out: % inhib
Chain of CaMKII_beta (Q13554 whole entry): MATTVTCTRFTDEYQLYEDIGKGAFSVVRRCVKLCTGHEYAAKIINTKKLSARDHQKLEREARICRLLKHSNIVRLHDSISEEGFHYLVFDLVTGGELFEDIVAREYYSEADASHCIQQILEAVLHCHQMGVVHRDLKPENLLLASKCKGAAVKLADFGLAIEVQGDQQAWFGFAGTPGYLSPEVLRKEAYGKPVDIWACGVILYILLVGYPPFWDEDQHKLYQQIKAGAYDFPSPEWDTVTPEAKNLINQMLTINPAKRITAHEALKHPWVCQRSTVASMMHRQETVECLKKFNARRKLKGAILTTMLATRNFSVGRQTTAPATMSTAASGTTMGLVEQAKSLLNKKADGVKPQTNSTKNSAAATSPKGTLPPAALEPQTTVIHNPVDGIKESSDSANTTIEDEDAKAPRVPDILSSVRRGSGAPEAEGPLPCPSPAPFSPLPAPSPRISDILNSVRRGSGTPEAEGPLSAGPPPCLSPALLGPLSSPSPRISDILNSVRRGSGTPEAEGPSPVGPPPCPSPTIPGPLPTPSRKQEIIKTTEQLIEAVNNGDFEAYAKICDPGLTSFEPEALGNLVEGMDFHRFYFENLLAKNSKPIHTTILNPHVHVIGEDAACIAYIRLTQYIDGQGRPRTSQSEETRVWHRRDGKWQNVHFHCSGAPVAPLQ

GSK3_beta = GSK3_beta (Homo sapiens, UniProt P49841); assay: biochemical; settings: read-out: % inhib
Chain of GSK3_beta (P49841 whole entry, species assumed, the tested form may be a part): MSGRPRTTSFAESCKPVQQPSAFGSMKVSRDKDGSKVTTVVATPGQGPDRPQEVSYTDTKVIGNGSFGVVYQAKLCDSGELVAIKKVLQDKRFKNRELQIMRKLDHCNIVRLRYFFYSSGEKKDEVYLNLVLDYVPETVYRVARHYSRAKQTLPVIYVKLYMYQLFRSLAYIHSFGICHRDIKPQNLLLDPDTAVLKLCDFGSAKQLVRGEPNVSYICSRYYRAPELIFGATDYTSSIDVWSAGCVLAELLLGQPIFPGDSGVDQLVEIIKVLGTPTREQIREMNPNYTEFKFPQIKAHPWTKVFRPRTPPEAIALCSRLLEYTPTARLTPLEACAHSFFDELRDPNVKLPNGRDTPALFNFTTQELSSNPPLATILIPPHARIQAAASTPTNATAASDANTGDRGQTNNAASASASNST

high-grade gliomas = assay: Phase I study, exploratory MRI; format: in vivo, human; settings: 34 patients, Ktrans, cerebral blood volume, apparent diffusion coefficient
Procedure: Thirty-four patients were evaluated by exploratory magnetic resonance imaging (“MRI”). […] The Ktrans changes were within the likely noise range of the measurement (based on variability in low-exposure cohorts).

P-gp and BCRP = assay: Transport assays in cell monolayers, overall; format: in vitro ADME
Procedure: as §1

Chain of ZAP-70 (P43403 whole entry, species assumed): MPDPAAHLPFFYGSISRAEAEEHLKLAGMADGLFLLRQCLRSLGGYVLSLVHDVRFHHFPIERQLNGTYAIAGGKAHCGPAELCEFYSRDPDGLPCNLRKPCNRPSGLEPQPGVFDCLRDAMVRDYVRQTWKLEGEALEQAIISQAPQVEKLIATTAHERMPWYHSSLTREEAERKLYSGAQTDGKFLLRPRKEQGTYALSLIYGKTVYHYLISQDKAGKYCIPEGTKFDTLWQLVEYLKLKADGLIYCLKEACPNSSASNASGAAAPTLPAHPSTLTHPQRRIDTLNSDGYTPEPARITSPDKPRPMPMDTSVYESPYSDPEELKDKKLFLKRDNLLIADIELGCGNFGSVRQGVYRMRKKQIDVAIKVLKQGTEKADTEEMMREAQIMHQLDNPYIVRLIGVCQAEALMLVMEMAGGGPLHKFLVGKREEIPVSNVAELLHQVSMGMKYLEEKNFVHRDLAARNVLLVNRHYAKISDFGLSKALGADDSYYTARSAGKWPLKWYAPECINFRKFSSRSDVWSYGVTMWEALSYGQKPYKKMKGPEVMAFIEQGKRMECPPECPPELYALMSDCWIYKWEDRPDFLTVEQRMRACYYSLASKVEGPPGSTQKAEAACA

With `CC1(C)OCCn2c1nc1c(N3CCOCC3)nc(-c3cnc(N)nc3)nc12` [GDC-0084, 5-(6,6-dimethyl-4-morpholino-8,9-dihydro-6H-[1,4]oxazino[3,4-e]purin-2-yl)pyrimidin-2-amine] the inhibition at 1 µM (ZAP-70) was -0.9%, the “pAKT in normal mouse brain tissue” value (pAKT; 3 mg/kg or 10 mg/kg orally, 1 h post-dose) was “inhibited” and the “pAKT in normal mouse brain tissue” value (pAKT; 3 mg/kg orally, 4 hours post-dose) was “no longer resulted in inhibition of pAKT”. It also gave a Papp A→B at 2 h, 5 μM (human BCRP) of 23.2 ± 5.4 ×10⁻⁶ cm/s, a Papp B→A at 2 h, 5 μM (human BCRP) of 16 ± 1.1 ×10⁻⁶ cm/s and an inhibition at 1 µM (CaMKII_beta) of 0.2%. For the same molecule, the inhibition at 1 µM (GSK3_beta) was 1%, the “MRI derived metrics versus drug plasma exposure” value (high-grade gliomas) was “none of the MRI derived metrics (Ktrans, Cerebral blood volume, apparent diffusion coefficient) showed any significant trend with drug plasma exposure” and the “substrate of efflux transporters” value (P-gp and BCRP; efflux ratios in MDCK or LLC-PK1 transfected cells) was “poor substrate of the efflux transporters P-gp and BCRP”. For the same molecule, the “apparent permeability (Papp), in words” value (P-gp and BCRP; transfected MDCK and LLC-PK1 cells) was “high and comparable to that of metoprolol”.

Source: patent US11643421B2, “Process for the preparation of tricyclic PI3K inhibitor compounds and methods for using the same for the treatment of cancer” (priority 2015, dated 2023)
